# How the values were obtained:
# Assay type in all cases: physicochemical
# [1] = Static storage stability of crystalline dihydrate and anhydrous forms (XRPD, DSC, KF weekly for four weeks)
# Procedure: The stability of crystalline dihydrate and anhydrous forms of the compound represented by Formula (I) at varying relative humidity (RH) and temperature was investigated.
# For example, the stability of crystalline dihydrate and anhydrous forms of the compound represented by Formula (I), as prepared according to Example 1 and Example 2, respectively, was studied under other conditions by placing aliquots of each form in static storage at conditions of 40° C./75% RH, 25° C./97% RH, 40° C./0% RH and 25° C./0% RH and analyzing the aliquots once weekly for four weeks using XRPD, DSC, and KF.
# [2] = Particle size distribution (PSD) of crystalline dihydrate form and seeds, DMAC-water crystallization; details: for particle size d10 of seeds / particle size d50 of seeds / particle size d90 of seeds: seeds used in DMAC-water crystallization
# [3] = Particle size analysis by laser diffraction (Malvern Mastersizer 3000, wet dispersion); details: volume distribution
# Procedure: Particle size analysis of dihydrate vimseltinib drug substance samples was determined by laser diffraction using a Malvern Mastersizer 3000 instrument in a wet dispersion mode.
# Prior to analysis, dihydrate drug substance samples were rotated and inverted in the sample container at least 10 times to ensure homogeneity. Between 20 and 25 mg of sample was weighed into a Malvern Glass tube. 20 mL of the Dispersant Solution (0.1% Span 85 in Isoparaffin G) was added and vortexed until a homogeneous suspension was obtained (˜30 s). The sample was then placed in a Vibra-Cell ultrasonic processor. The amplitude was set to the target of 30% (4 Watts) using an external probe (Vibra-Cell) during 90 sec.
# After background measurement, the sample dispersion was slowly added to the dispersion unit of the instrument to achieve an obscuration level target of 5%. The sample was stirred at 3250 rpm for at least 1 minute to ensure dispersion and stabilization of the sample. After stabilization, the measurement was started and performed using a Malvern Mastersizer 3000 according to the method conditions provided in Table 17.
# [4] = jet-milled seed batch, crystallization 1 at 60° C. with 7% seeds, crystallization 2 at 64° C. with 5% seeds
# [5] = storage 25° C./0% RH, Week 4, listed as crystalline dihydrate form (having average crystal sizes of about 1 mm)
# [6] = storage 40° C./0% RH, Week 4, listed as crystalline dihydrate form (having average crystal sizes of about 1 mm)
# [7] = milled seeds of crystalline dihydrate form used in DMAC-water crystallization, listed as 1
# [8] = listed as seeds of a smaller size
# [9] = crystallization outputs using seeds of a smaller size (about 1/3/5 μm)
# [10] = crystallized with milled seeds of about 3/6/12 μm, seeding about 65° C., about 3% seeds, laboratory and production scale
compound,measurement,setting,value
Cc1nc(-c2cnc(NC(C)C)n(C)c2=O)ccc1Oc1ccnc(-c2cnn(C)c2)c1,KF (%),"[1]; storage 25° C./0% RH, Week 1",0.1%
same,XRPD,"[1]; storage 25° C./0% RH, Week 1",Anhydrous
same,KF (%),"[1]; storage 25° C./0% RH, Week 2",0.1%
same,XRPD,"[1]; storage 25° C./0% RH, Week 2",Anhydrous
same,KF (%),"[1]; storage 25° C./0% RH, Week 3",0.0%
same,XRPD,"[1]; storage 25° C./0% RH, Week 3",Anhydrous
same,KF (%),"[1]; storage 25° C./0% RH, Week 4",0.2%
same,XRPD,"[1]; storage 25° C./0% RH, Week 4",Anhydrous
same,KF (%),"[1]; storage 25° C./97% RH, Week 1",0.3%
same,XRPD,"[1]; storage 25° C./97% RH, Week 1",Anhydrous
same,KF (%),"[1]; storage 25° C./97% RH, Week 2",0.3%
same,XRPD,"[1]; storage 25° C./97% RH, Week 2",Anhydrous
same,KF (%),"[1]; storage 25° C./97% RH, Week 3",0.2%
same,XRPD,"[1]; storage 25° C./97% RH, Week 3",Anhydrous
same,KF (%),"[1]; storage 25° C./97% RH, Week 4",0.4%
same,XRPD,"[1]; storage 25° C./97% RH, Week 4",Anhydrous
same,KF (%),"[1]; storage 40° C./0% RH, Week 1",0.1%
same,XRPD,"[1]; storage 40° C./0% RH, Week 1",Anhydrous
same,KF (%),"[1]; storage 40° C./0% RH, Week 2",0.0%
same,XRPD,"[1]; storage 40° C./0% RH, Week 2",Anhydrous
same,KF (%),"[1]; storage 40° C./0% RH, Week 3",0.0%
same,XRPD,"[1]; storage 40° C./0% RH, Week 3",Anhydrous
same,KF (%),"[1]; storage 40° C./0% RH, Week 4",0.2%
same,XRPD,"[1]; storage 40° C./0% RH, Week 4",Anhydrous
same,KF (%),"[1]; storage 40° C./75% RH, Week 1",0.3%
same,XRPD,"[1]; storage 40° C./75% RH, Week 1",Anhydrous
same,KF (%),"[1]; storage 40° C./75% RH, Week 2",0.2%
same,XRPD,"[1]; storage 40° C./75% RH, Week 2",Anhydrous
same,KF (%),"[1]; storage 40° C./75% RH, Week 3",0.1%
same,XRPD,"[1]; storage 40° C./75% RH, Week 3",Anhydrous
same,KF (%),"[1]; storage 40° C./75% RH, Week 4",0.3%
same,XRPD,"[1]; storage 40° C./75% RH, Week 4",Anhydrous
Cc1nc(-c2cnc(NC(C)C)n(C)c2=O)ccc1Oc1ccnc(-c2cnn(C)c2)c1.O.O [Crystalline dihydrate form of the compound represented by Fo] [listing 1 of 2 here],Particle Size d10,[2]; [4],3.6 microns
same,Particle Size d50,[2]; [4],8.4 microns
same,Particle Size d90,[2]; [4],16.2 microns
Cc1nc(-c2cnc(NC(C)C)n(C)c2=O)ccc1Oc1ccnc(-c2cnn(C)c2)c1.O.O [Crystalline dihydrate form of the compound represented by Fo] [listing 2 of 2 here],Particle Size d10,[2]; [4],3.9 microns
same,Particle Size d50,[2]; [4],8.5 microns
same,Particle Size d90,[2]; [4],16.0 microns
Cc1nc(-c2cnc(NC(C)C)n(C)c2=O)ccc1Oc1ccnc(-c2cnn(C)c2)c1.O.O [Dihydrate form of the compound represented by Formula (I) (h] [listing 1 of 2 here],KF (%),"[1]; storage 25° C./0% RH, Week 1",7.7%
same,XRPD,"[1]; storage 25° C./0% RH, Week 1",Dihydrate
same,KF (%),"[1]; storage 25° C./0% RH, Week 2",7.6%
same,XRPD,"[1]; storage 25° C./0% RH, Week 2",Dihydrate
same,KF (%),"[1]; storage 25° C./0% RH, Week 3",7.2%
same,XRPD,"[1]; storage 25° C./0% RH, Week 3",Dihydrate
same,KF (%),"[1]; storage 25° C./0% RH, Week 4",5.8%
same,KF (%),[1]; [5],5.8%
same,XRPD,[1]; [5],partially converted to the crystalline anhydrous form
same,KF (%),"[1]; storage 25° C./97% RH, Week 1",7.7%
same,XRPD,"[1]; storage 25° C./97% RH, Week 1",Dihydrate
same,KF (%),"[1]; storage 25° C./97% RH, Week 2",7.7%
same,XRPD,"[1]; storage 25° C./97% RH, Week 2",Dihydrate
same,KF (%),"[1]; storage 25° C./97% RH, Week 3",7.4%
same,XRPD,"[1]; storage 25° C./97% RH, Week 3",Dihydrate
same,KF (%),"[1]; storage 25° C./97% RH, Week 4",7.7%
same,XRPD,"[1]; storage 25° C./97% RH, Week 4",Dihydrate
same,XRPD,"[1]; storage 25° C./97% RH, Week 4, listed as crystalline dihydrate form (having average crystal sizes of about 1 mm)",remained stable and unchanged
same,KF (%),"[1]; storage 40° C./0% RH, Week 1",0.8%
same,KF (%),"[1]; storage 40° C./0% RH, Week 2",0.3%
same,KF (%),"[1]; storage 40° C./0% RH, Week 3",0.1%
same,XRPD,"[1]; storage 40° C./0% RH, Week 3",Anhydrous
same,KF (%),"[1]; storage 40° C./0% RH, Week 4",0.2%
same,KF (%),[1]; [6],0.2%
same,XRPD,[1]; [6],partially converted to the crystalline anhydrous form
same,KF (%),"[1]; storage 40° C./75% RH, Week 1",7.7%
same,XRPD,"[1]; storage 40° C./75% RH, Week 1",Dihydrate
same,KF (%),"[1]; storage 40° C./75% RH, Week 2",7.6%
same,XRPD,"[1]; storage 40° C./75% RH, Week 2",Dihydrate
same,KF (%),"[1]; storage 40° C./75% RH, Week 3",7.7%
same,XRPD,"[1]; storage 40° C./75% RH, Week 3",Dihydrate
same,KF (%),"[1]; storage 40° C./75% RH, Week 4",7.7%
same,XRPD,"[1]; storage 40° C./75% RH, Week 4",Dihydrate
same,XRPD,"[1]; storage 40° C./75% RH, Week 4, listed as crystalline dihydrate form (having average crystal sizes of about 1 mm)",remained stable and unchanged
Cc1nc(-c2cnc(NC(C)C)n(C)c2=O)ccc1Oc1ccnc(-c2cnn(C)c2)c1.O.O [Dihydrate form of the compound represented by Formula (I) (h] [listing 2 of 2 here],KF (%),"[1]; storage 25° C./0% RH, Week 1",7.5%
same,KF (%),"[1]; storage 25° C./0% RH, Week 2",7.7%
same,KF (%),"[1]; storage 25° C./0% RH, Week 3",8.1%
same,KF (%),"[1]; storage 25° C./0% RH, Week 4",7.9%
same,XRPD,"[1]; storage 25° C./0% RH, Week 4",Dihydrate
same,KF (%),"[1]; storage 25° C./97% RH, Week 1",7.6%
same,KF (%),"[1]; storage 25° C./97% RH, Week 2",7.5%
same,KF (%),"[1]; storage 25° C./97% RH, Week 3",7.9%
same,KF (%),"[1]; storage 25° C./97% RH, Week 4",7.9%
same,KF (%),"[1]; storage 40° C./0% RH, Week 1",7.5%
same,XRPD,"[1]; storage 40° C./0% RH, Week 1",Pattern 4
same,XRPD,"[1]; storage 40° C./0% RH, Week 1, listed as crystalline dihydrate form (having crystal sizes in the range of about 10-50 μm)",Pattern 4
same,KF (%),"[1]; storage 40° C./0% RH, Week 2",7.4%
same,XRPD,"[1]; storage 40° C./0% RH, Week 2",Pattern 4
same,XRPD,"[1]; storage 40° C./0% RH, Week 2, listed as crystalline dihydrate form (having crystal sizes in the range of about 10-50 μm)",Pattern 4
same,KF (%),"[1]; storage 40° C./0% RH, Week 3",7.0%
same,XRPD,"[1]; storage 40° C./0% RH, Week 3, listed as crystalline dihydrate form (having crystal sizes in the range of about 10-50 μm)",Pattern 4 and peaks at 9.9° and 10.6°
same,KF (%),"[1]; storage 40° C./0% RH, Week 4",3.4%
same,XRPD,"[1]; storage 40° C./0% RH, Week 4, listed as crystalline dihydrate form (having crystal sizes in the range of about 10-50 μm)",Pattern 4 and peaks at 9.9° and 10.6°
same,KF (%),"[1]; storage 40° C./75% RH, Week 1",7.5%
same,KF (%),"[1]; storage 40° C./75% RH, Week 2",7.9%
same,KF (%),"[1]; storage 40° C./75% RH, Week 3",8.0%
same,KF (%),"[1]; storage 40° C./75% RH, Week 4",7.9%
Cc1nc(-c2cnc(NC(C)C)n(C)c2=O)ccc1Oc1ccnc(-c2cnn(C)c2)c1.O.O [Lot 1],D(10),[3]; listed as 1,9 μm
same,D(50),[3]; listed as 1,29 μm
same,D(90),[3]; listed as 1,59 μm
same,Particle Size d10,[2]; [7],2 microns
same,Particle Size d50,[2]; [7],5 microns
same,Particle Size d90,[2]; [7],13 microns
Cc1nc(-c2cnc(NC(C)C)n(C)c2=O)ccc1Oc1ccnc(-c2cnn(C)c2)c1.O.O [Lot 4],D(10),[3]; listed as 4,7 μm
same,D(50),[3]; listed as 4,19 μm
same,D(90),[3]; listed as 4,36 μm
Cc1nc(-c2cnc(NC(C)C)n(C)c2=O)ccc1Oc1ccnc(-c2cnn(C)c2)c1.O.O [Seed batch],Particle Size d10,[2]; [4],1.4 microns
same,Particle Size d50,[2]; [4],2.7 microns
same,Particle Size d90,[2]; [4],5.0 microns
same,particle size d10 of seeds,[2]; [8],about 1 μm
same,particle size d50 of seeds,[2]; [8],about 3 μm
same,particle size d90 of seeds,[2]; [8],about 5 μm
Cc1nc(-c2cnc(NC(C)C)n(C)c2=O)ccc1Oc1ccnc(-c2cnn(C)c2)c1.O.O [crystalline dihydrate form ground in a mortar and pestle],XRPD,"[1]; storage 40° C./0% RH, Week 1",Pattern 4 and the crystalline anhydrous form were observed
Cc1nc(-c2cnc(NC(C)C)n(C)c2=O)ccc1Oc1ccnc(-c2cnn(C)c2)c1.O.O [milled seeds],particle size d10 of seeds,[2],about 3 μm
same,particle size d50 of seeds,[2],about 6 μm
same,particle size d90 of seeds,[2],about 12 μm
Cc1nc(-c2cnc(NC(C)C)n(C)c2=O)ccc1Oc1ccnc(-c2cnn(C)c2)c1.O.O [non-milled batch of crystalline dihydrate form of the compou],particle size d10 of seeds,[2],about 5 μm
same,particle size d50 of seeds,[2],about 15 μm
same,particle size d90 of seeds,[2],about 36 μm
Cc1nc(-c2cnc(NC(C)C)n(C)c2=O)ccc1Oc1ccnc(-c2cnn(C)c2)c1 [vimseltinib],Particle Size d10,[2]; [9],about 4 μm
same,Particle Size d50,[2]; [9],about 8 μm
same,Particle Size d90,[2]; [9],about 16 μm
same,Particle Size d10,[2]; [10],6-8 μm
same,Particle Size d50,[2]; [10],16-22 μm
same,Particle Size d90,[2]; [10],33-40 μm

# From patent publication US12447149B2, “Formulations of vimseltinib” (Deciphera Pharmaceuticals, LLC, priority 2023, dated 2025)
